System: HCT116 colorectal cancer cells
Test: Cisplatin sensitization assay (96 h MTS cell viability);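 note: compound concentration needed to lower the IC50 of Cisplatin alone by a set fold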
Format: cell-based
Settings: Cisplatin sensitization value
Procedure, shortened: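 HCT116 cells were dosed simultaneously with compound and cisplatin as a full matrix of 2-fold serial dilutions from 10 μM top final concentration. Incubation was 96 h at 37° C., 5% CO2, followed by 1 h with MTS reagent for the viability read-out. Sensitization values were binned into +++, ++ and + categories.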

## CN1CC2CN(C(=O)C3CCN(c4c(F)cncc4NC(=O)c4c(N)nn5cc(F)cnc45)CC3)CC2C1 (stereo not shown) [I-G-18, 2-amino-6-fluoro-N-(5-fluoro-4-(4-(5-methyloctahydropyrrolo[3,4-c]pyrrole-2-carbonyl)piperidin-1-yl)pyridin-3-yl)pyrazolo[1,5-a]pyrimidine-3-carboxamide]
  Cisplatin Sensitization Assay: +++ (Compounds with a Cisplatin sensitization value of <0.02 μM are marked with “+++.”)

## CN1CC2(CCN(c3ccncc3NC(=O)c3c(N)nn4cc(F)cnc34)CC2)OC1=O [I-N-216, 2-amino-6-fluoro-N-(4-(3-methyl-2-oxo-1-oxa-3,8-diazaspiro[4.5]decan-8-yl)pyridin-3-yl)pyrazolo[1,5-a]pyrimidine-3-carboxamide]
  Cisplatin Sensitization Assay: +++ (Compounds with a Cisplatin sensitization value of <0.02 μM are marked with “+++.”)

## Nc1nn2cc(Cl)cnc2c1C(=O)Nc1cnccc1Oc1cccnc1 [I-O-70, 2-amino-6-chloro-N-(4-(pyridin-3-yloxy)pyridin-3-yl)pyrazolo[1,5-a]pyrimidine-3-carboxamide]
  Cisplatin Sensitization Assay: +++ (Compounds with a Cisplatin sensitization value of <0.02 μM are marked with “+++.”)

## Nc1nn2cc(F)cnc2c1C(=O)Nc1cnccc1N1CCN(C2CCOC2)CC1 (racemic) [I-N-19, (R,S)-2-amino-6-fluoro-N-(4-(4-(tetrahydrofuran-3-yl)piperazin-1-yl)pyridin-3-yl)pyrazolo[1,5-a]pyrimidine-3-carboxamide]
  Cisplatin Sensitization Assay: +++ (Compounds with a Cisplatin sensitization value of <0.02 μM are marked with “+++.”)

## Cc1ncn(C)c1-c1ccncc1NC(=O)c1c(N)nn2cc(F)cnc12 [I-C-78, 2-amino-N-(4-(1,4-dimethyl-1H-imidazol-5-yl)pyridin-3-yl)-6-fluoropyrazolo[1,5-a]pyrimidine-3-carboxamide]
  Cisplatin Sensitization Assay: ++ (Compounds with a Cisplatin sensitization value >0.02 μM but <0.2 μM are marked with “++.”)

## Nc1nn2cc(F)cnc2c1C(=O)Nc1cncc(F)c1N1CCN(C2CCOC2)CC1 (stereo not shown) [I-N-122, 2-amino-6-fluoro-N-(5-fluoro-4-(4-(tetrahydrofuran-3-yl)piperazin-1-yl)pyridin-3-yl)pyrazolo[1,5-a]pyrimidine-3-carboxamide]
  Cisplatin Sensitization Assay: ++ (Compounds with a Cisplatin sensitization value >0.02 μM but <0.2 μM are marked with “++.”)

## CN1CCN(C(=O)C2CCN(c3c(F)cncc3NC(=O)c3c(N)nn4cc(F)cnc34)CC2)CC1(C)C [I-G-15, 2-amino-6-fluoro-N-(5-fluoro-4-(4-(3,3,4-trimethylpiperazine-1-carbonyl)piperidin-1-yl)pyridin-3-yl)pyrazolo[1,5-a]pyrimidine-3-carboxamide]
  Cisplatin Sensitization Assay: +++ (Compounds with a Cisplatin sensitization value of <0.02 μM are marked with “+++.”)

## CN1CCN(C2CCN(c3c(F)cncc3NC(=O)c3c(N)nn4cc(F)cnc34)CC2)C(=O)C1 [I-N-151, 2-amino-6-fluoro-N-(5-fluoro-4-(4-(4-methyl-2-oxopiperazin-1-yl)piperidin-1-yl)pyridin-3-yl)pyrazolo[1,5-a]pyrimidine-3-carboxamide]
  Cisplatin Sensitization Assay: + (Compounds with a Cisplatin sensitization value >0.2 μM but <5 μM are marked with “+.”)

## Cc1nc(O[C@@H]2CCN(C)C2)ccc1-c1ccncc1NC(=O)c1c(N)nn2cc(F)cnc12 [I-C-41, (R)-2-amino-6-fluoro-N-(2-methyl-6-((1-methylpyrrolidin-3-yl)oxy)-[3,4′-bipyridin]-3′-yl)pyrazolo[1,5-a]pyrimidine-3-carboxamide]
  Cisplatin Sensitization Assay: +++ (Compounds with a Cisplatin sensitization value of <0.02 μM are marked with “+++.”)

## Nc1nn2cc(F)cnc2c1C(=O)Nc1cnccc1-c1ccc(C(=O)N2CCN(C3COC3)CC2)nc1 [I-C-52, 2-amino-6-fluoro-N-(6-(4-(oxetan-3-yl)piperazine-1-carbonyl)-[3,4′-bipyridin]-3′-yl)pyrazolo[1,5-a]pyrimidine-3-carboxamide]
  Cisplatin Sensitization Assay: ++ (Compounds with a Cisplatin sensitization value >0.02 μM but <0.2 μM are marked with “++.”)

## COC1(C)CN(C(=O)C2CCN(c3ccncc3NC(=O)c3c(N)nn4cc(F)cnc34)CC2)C1 [I-G-79, 2-amino-6-fluoro-N-(4-(4-(3-methoxy-3-methylazetidine-1-carbonyl)piperidin-1-yl)pyridin-3-yl)pyrazolo[1,5-a]pyrimidine-3-carboxamide]
  Cisplatin Sensitization Assay: +++ (Compounds with a Cisplatin sensitization value of <0.02 μM are marked with “+++.”)

## Nc1nn2cc(F)cnc2c1C(=O)Nc1cnccc1N1CCN2CCC1CC2 [I-N-18, N-(4-(1,4-diazabicyclo[3.2.2]nonan-4-yl)pyridin-3-yl)-2-amino-6-fluoropyrazolo[1,5-a]pyrimidine-3-carboxamide]
  Cisplatin Sensitization Assay: ++ (Compounds with a Cisplatin sensitization value >0.02 μM but <0.2 μM are marked with “++.”)

## Nc1nn2cc(F)cnc2c1C(=O)Nc1cnccc1N1CCCCCC1 [I-N-264, 2-amino-N-(4-(azepan-1-yl)pyridin-3-yl)-6-fluoropyrazolo[1,5-a]pyrimidine-3-carboxamide]
  Cisplatin Sensitization Assay: + (Compounds with a Cisplatin sensitization value >0.2 μM but <5 μM are marked with “+.”)

## CCN1CCN(c2ccncc2NC(=O)c2c(N)nn3cc(F)cnc23)CC1 [I-N-17, 2-amino-N-(4-(4-ethylpiperazin-1-yl)pyridin-3-yl)-6-fluoropyrazolo[1,5-a]pyrimidine-3-carboxamide]
  Cisplatin Sensitization Assay: +++ (Compounds with a Cisplatin sensitization value of <0.02 μM are marked with “+++.”)

## Nc1nn2cc(F)cnc2c1C(=O)Nc1cncc(F)c1N1CCC(C(=O)N2CC(O)C2)CC1 [I-G-41, 2-amino-6-fluoro-N-(5-fluoro-4-(4-(3-hydroxyazetidine-1-carbonyl)piperidin-1-yl)pyridin-3-yl)pyrazolo[1,5-a]pyrimidine-3-carboxamide]
  Cisplatin Sensitization Assay: +++ (Compounds with a Cisplatin sensitization value of <0.02 μM are marked with “+++.”)

## CN1CCN(C(=O)C2CCN(c3c(F)cncc3NC(=O)c3c(N)nn4cc(F)cnc34)C2)CC1 (stereo not shown) [I-N-191, 2-amino-6-fluoro-N-(5-fluoro-4-(3-(4-methylpiperazine-1-carbonyl)pyrrolidin-1-yl)pyridin-3-yl)pyrazolo[1,5-a]pyrimidine-3-carboxamide]
  Cisplatin Sensitization Assay: + (Compounds with a Cisplatin sensitization value >0.2 μM but <5 μM are marked with “+.”)

## CN1CCC(c2ccncc2NC(=O)c2c(N)nn3cc(C(C)(C)C#N)cnc23)CC1 [I-C-23, 2-amino-6-(2-cyanopropan-2-yl)-N-(4-(1-methylpiperidin-4-yl)pyridin-3-yl)pyrazolo[1,5-a]pyrimidine-3-carboxamide]
  Cisplatin Sensitization Assay: + (Compounds with a Cisplatin sensitization value >0.2 μM but <5 μM are marked with “+.”)

## CC(C)(O)CN1CCN(c2c(F)cncc2NC(=O)c2c(N)nn3cc(F)cnc23)CC1 [I-N-139, 2-amino-6-fluoro-N-(5-fluoro-4-(4-(2-hydroxy-2-methylpropyl)piperazin-1-yl)pyridin-3-yl)pyrazolo[1,5-a]pyrimidine-3-carboxamide]
  Cisplatin Sensitization Assay: +++ (Compounds with a Cisplatin sensitization value of <0.02 μM are marked with “+++.”)

## CC(=O)N1CCC2(CCN(c3ccncc3NC(=O)c3c(N)nn4cc(F)cnc34)CC2)C1 [I-N-257, N-(4-(2-acetyl-2,8-diazaspiro[4.5]decan-8-yl)pyridin-3-yl)-2-amino-6-fluoropyrazolo[1,5-a]pyrimidine-3-carboxamide]
  Cisplatin Sensitization Assay: +++ (Compounds with a Cisplatin sensitization value of <0.02 μM are marked with “+++.”)

## Nc1nn2cc(Cl)cnc2c1C(=O)Nc1cnccc1N1CCN(CC(F)(F)F)CC1 [I-N-67, 2-amino-6-chloro-N-(4-(4-(2,2,2-trifluoroethyl)piperazin-1-yl)pyridin-3-yl)pyrazolo[1,5-a]pyrimidine-3-carboxamide]
  Cisplatin Sensitization Assay: +++ (Compounds with a Cisplatin sensitization value of <0.02 μM are marked with “+++.”)

## C[N+]1([O-])CCN(C(=O)C2CCN(c3c(F)cncc3NC(=O)c3c(N)nn4cc(F)cnc34)CC2)CC1 [I-G-95, 4-(1-(3-(2-amino-6-fluoropyrazolo[1,5-a]pyrimidine-3-carboxamido)-5-fluoropyridin-4-yl)piperidine-4-carbonyl)-1-methylpiperazine 1-oxide]
  Cisplatin Sensitization Assay: +++ (Compounds with a Cisplatin sensitization value of <0.02 μM are marked with “+++.”)

## CC(C)Oc1ccncc1NC(=O)c1c(N)nn2cc(CC#N)cnc12 [I-O-35, 2-amino-6-(cyanomethyl)-N-(4-isopropoxypyridin-3-yl)pyrazolo[1,5-a]pyrimidine-3-carboxamide]
  Cisplatin Sensitization Assay: +++ (Compounds with a Cisplatin sensitization value of <0.02 μM are marked with “+++.”)

## CN1CC2(CCN(c3ccncc3NC(=O)c3c(N)nn4cc(F)cnc34)CC2)CC1=O [I-N-236, 2-amino-6-fluoro-N-(4-(2-methyl-3-oxo-2,8-diazaspiro[4.5]decan-8-yl)pyridin-3-yl)pyrazolo[1,5-a]pyrimidine-3-carboxamide]
  Cisplatin Sensitization Assay: +++ (Compounds with a Cisplatin sensitization value of <0.02 μM are marked with “+++.”)

## CN1CCN(C(=O)C2CCN(c3c(F)cncc3NC(=O)c3c(N)nn4cc(F)cnc34)CC2)CC1 [I-G-4, 2-amino-6-fluoro-N-(5-fluoro-4-(4-(4-methylpiperazine-1-carbonyl)piperidin-1-yl)pyridin-3-yl)pyrazolo[1,5-a]pyrimidine-3-carboxamide]
  Cisplatin Sensitization Assay: +++ (Compounds with a Cisplatin sensitization value of <0.02 μM are marked with “+++.”)

## N#CCc1cnc2c(C(=O)Nc3cnccc3O[C@H]3CCOC3)c(N)nn2c1 [I-O-42, (S)-2-amino-6-(cyanomethyl)-N-(4-((tetrahydrofuran-3-yl)oxy)pyridin-3-yl)pyrazolo[1,5-a]pyrimidine-3-carboxamide]
  Cisplatin Sensitization Assay: +++ (Compounds with a Cisplatin sensitization value of <0.02 μM are marked with “+++.”)

From patent US11117900B2 (Vertex Pharmaceuticals Incorporated, priority 2012, dated 2021)
